{
  "source": "patent US20250318525A1",
  "about": "“COMPOSITIONS TO CONTROL THE RELEASE RATES OF CHEMICAL PESTICIDES” (priority 2020, published 2025)",
  "key": {"[1]": {"assay": "2,4D release from tablets containing preformed 2,4D complexes (Examples 8, 10, 11)", "format": "physicochemical", "details": "20% 2,4D tablets in silt, 1 L deionized water, 20° C., 60 rpm, FIGS. 16, 18, 19", "method": "The resulting solids were filtered and resuspended in deionized water with stirring for 15 min., then filtered again. The solids were dried to constant mass in a food dehydrator 120° F.\nThe resulting tablets were immersed in 1 L of deionized water at 20° C. and stirred at 60 rpm for the designated time period."}, "[2]": {"assay": "physchem", "details": "water"}, "[3]": {"assay": "Benzoic acid release from benzoic acid salt tablets (Example 21)", "format": "physicochemical", "details": "1 L stirred deionized water, room temperature, FIG. 30", "method": "Benzoic acid (BA) is a structural analogue to dicamba with its carboxylic acid in the benzyl position. BA salts were prepared by mixing a stoichiometric amount of metal hydroxide with benzoic acid in deionized water for a minimum of 12 hours. The resulting solids were filtered out of solution and dried in a dehydrator for 12 hours at 120° F. These were then blended with silt in a mortar and pestle and pressed on a desktop tablet press into 6 mm tablets (average tablet weight 0.093 g).\n• A. 0.1 g BA, 0.4 g silt • B. 0.1 g Mg(BA)2, 0.4 g silt • C. 0.1 g Ca(BA)2, 0.4 g silt • D. 0.1 g Cu(BA)2, 0.4 g silt • E. 0.1 g Na benzoate, 0.4 g silt\nThese tablets were immersed in 1 L, stirred (60 rpm), room temperature, deionized water with two tablets per jar. […] A trend can be expected, but not predicted. Based on this, a trend could also be expected when dicamba is paired with metal ions."}, "[4]": {"assay": "Terrestrial sand bed with 2,4D salts and modeled rain events (Example 24)", "format": "physicochemical", "details": "7×200 mL flushes of deionized water, FIG. 33", "method": "200 mL of sand was layered in a Buchner funnel with filter paper. 2,4D salts were blended with 5.0 g of sand, and layered atop the 200 mL sand bed and exposed to 7×200 mL flushes of deionized water. 2,4D concentration was measured in the flush water to study how the associated metal impacted how rapidly 2,4D was lost from the surface.\nIn a terrestrial application, 2,4D lost from the surface would no longer be available to treat the target plant."}, "[5]": {"details": "as listed in FIG. 36"}, "[6]": {"assay": "TFM release when paired with bases of increasing solubility", "format": "physicochemical", "from_the_text": "If a weak base is paired with the TFM, the solubilization of TFM can be controlled by the basicity and/or the solubility of the weak base."}, "[7]": {"assay": "Release from dual active tablets, copper-endothall salt and Mg(2,4D)2 or Ca(2,4D)2 (Example 18)", "format": "physicochemical", "details": "tablets with Mg(2,4D)2 or Ca(2,4D)2, 1 L stirred deionized water, both formulations, FIG. 27", "method": "Formulations were mixed using a blender and then pressed into 6 mm tablets (average weight of 0.082 g/tablet) using a desktop tablet press. Exact Formulations: • A. 0.5 g Endothall (Cu), 0.5 g 2,4D (Ca), 0.5 g silt • B. 0.5 g Endothall (Cu), 0.5 g 2,4D (Mg), 0.5 g silt\n(§1) The resulting tablets were immersed in 1 L of stirred deionized water (60 rpm). […] The copper endothall salt portion of the formulation releases rapidly within 24 hours for both formulations."}, "[8]": {"assay": "Release from dual active tablets, copper-endothall salt and Mg(triclopyr)2 or Ca(triclopyr)2 (Example 19)", "format": "physicochemical", "details": "tablets with Mg(triclopyr)2 or Ca(triclopyr)2, 1 L stirred deionized water, both formulations, FIG. 28", "method": "Formulations were prepared with 33 weight percent each of copper-endothall salt, Mg(triclopyr)2 or Ca(triclopyr)2 salt, and silt. Formulations were mixed using a blender and then pressed into 6 mm tablets (average weight of 0.082 g/tablet) using a desktop tablet press.\n• A. 0.5 g Endothall (Cu), 0.5 g triclopyr (Ca), 0.5 g silt • B. 0.5 g Endothall (Cu), 0.5 g triclopyr (Mg), 0.5 g silt\nas §1"}},
  "note": "Read-outs that look alike come from different tables or passages of the source.",
  "data": [
    {"smiles": "O=C(O)COc1ccc(Cl)cc1Cl", "note": "[2,4D, 2,4-dichlorophenoxyacetic acid, reference compound]", "values": [
      {"measurement": "2,4D release rate, comparison", "setting": "[1]", "result": "releases significantly faster than the Ca(2,4D)2"},
      {"measurement": "solubility", "setting": "[2]", "result": 740, "unit": "µg/mL"}
    ]},
    {"smiles": "O=C(O)COc1ccc(Cl)cc1Cl", "note": "[Ca(2,4D)2]", "values": [
      {"measurement": "2,4D release rate, comparison", "setting": "[1]; listed as premade calcium complex", "result": "not significantly slower"}
    ]},
    {"smiles": "O=C([O-])c1ccccc1.O=C([O-])c1ccccc1.[Ca+2]", "note": "[Ca(BA)2]", "values": [
      {"measurement": "benzoic acid release rate, comparison", "setting": "[3]", "result": "releases significantly faster than BA"}
    ]},
    {"smiles": "O=C([O-])COc1ccc(Cl)cc1Cl.O=C([O-])COc1ccc(Cl)cc1Cl.[Cu+2]", "note": "[Cu(2,4D)2]", "values": [
      {"measurement": "2,4D release rate, comparison", "setting": "[1]", "result": "the slowest of all"},
      {"measurement": "tolerance of 2,4D salt on sand bed to water flushes", "setting": "[4]", "result": "most tolerant to frequent exposure to rain or watering events"}
    ]},
    {"smiles": "O=C([O-])COc1ccc(Cl)cc1Cl.O=C([O-])COc1ccc(Cl)cc1Cl.[Fe+2]", "note": "[Fe(2,4D)2]", "values": [
      {"measurement": "2,4D release rate, comparison", "setting": "[1]", "result": "releases more slowly than 2,4D"},
      {"measurement": "solubility", "setting": "[5]", "result": 1860, "unit": "mg/L"}
    ]},
    {"smiles": "O=C([O-])COc1ccc(Cl)cc1Cl.[Na+]", "note": "[Na(2,4D)]", "values": [
      {"measurement": "2,4D release rate, comparison", "setting": "[1]", "result": "releases the fastest"}
    ]},
    {"smiles": "O=[N+]([O-])c1ccc(O)cc1C(F)(F)F", "note": "[TFM, 3-trifluoromethyl-4-nitrophenol]", "values": [
      {"measurement": "TFM release rate, order by paired base", "setting": "[6]", "result": "Mg(OH)2<Ca(OH)2<<<KOH"}
    ]},
    {"smiles": "O=C([O-])C1C2CCC(O2)C1C(=O)[O-].[Cu+2]", "note": "(stereo not drawn) [copper endothall salt]", "values": [
      {"measurement": "time for release of endothall portion", "setting": "[7]", "result": "≤ 24", "unit": "h"},
      {"measurement": "time for release of endothall portion", "setting": "[8]", "result": "≤ 24", "unit": "h"}
    ]}
  ]
}
